Test results published in the NIST ThermoML archive (doi:10.1016/j.fluid.2016.06.024).
Numbers after ± are expanded uncertainties.

Legend:
[1] = molar heat capacity at constant pressure; settings: Liquid, Flow calorimetry
[2] = molar heat capacity at constant pressure; wn = mass fraction of the nth substance listed; settings: Liquid, Flow calorimetry, w2 = 0.995

CCO [ethanol]
molar heat capacity at constant pressure [J/K/mol], [1]
Settings | 100 kPa | 5000 kPa | 10000 kPa | 15000 kPa | 20000 kPa
273.17 K | 103.42 ± 2.9 | 103.1 ± 2.9 | 102.18 ± 2.9 | 101.77 ± 2.9 | 100.8 ± 2.8
293.16 K | 111.62 ± 3.1 | 111.02 ± 3.1 | 109.97 ± 3.1 | 108.95 ± 3 | 108.21 ± 3
313.18 K | 120.47 ± 3.4 | 119.09 ± 3.3 | 117.7 ± 3.3 | 116.78 ± 3.3 | 115.68 ± 3.2
333.19 K | 130.65 ± 3.7 | 129.73 ± 3.6 | 128.35 ± 3.6 | 126.83 ± 3.5 | 125.91 ± 3.5

COC(F)(F)C(F)(C(F)(F)F)C(F)(F)F [methyl nonafluoroisobutyl ether] + COC(F)(F)C(F)(F)C(F)(F)C(F)(F)F
[2]
Settings | molar heat capacity at constant pressure [J/K/mol]
253.15 K, 5000 kPa | 209.05 ± 3
253.16 K, 10000 kPa | 207.55 ± 2.5
253.16 K, 15000 kPa | 205.55 ± 3
253.17 K, 100 kPa | 214.05 ± 3
264.15 K, 15000 kPa | 227.11 ± 3.2
264.16 K, 5000 kPa | 230.61 ± 3.3
264.17 K, 100 kPa | 232.86 ± 3.3
264.18 K, 10000 kPa | 228.61 ± 3.2
274.59 K, 15000 kPa | 249.36 ± 3.5
274.63 K, 100 kPa | 257.81 ± 3.8
274.63 K, 5000 kPa | 252.81 ± 3.5
274.63 K, 10000 kPa | 250.86 ± 3.5
284.25 K, 10000 kPa | 273.79 ± 3.9
284.26 K, 100 kPa | 278.04 ± 3.9
284.27 K, 5000 kPa | 275.79 ± 3.9
284.3 K, 15000 kPa | 272.29 ± 3.8
294.09 K, 5000 kPa | 297.5 ± 4.2
294.09 K, 10000 kPa | 294.82 ± 4.3
294.1 K, 100 kPa | 300.52 ± 4.2
294.13 K, 15000 kPa | 294 ± 4.2
303.94 K, 10000 kPa | 317.35 ± 4.5
303.95 K, 100 kPa | 321.61 ± 4.5
303.96 K, 5000 kPa | 319.35 ± 4.5
303.96 K, 15000 kPa | 315.85 ± 4.5
314.92 K, 100 kPa | 347.39 ± 4.9
314.92 K, 5000 kPa | 345.14 ± 4.9
314.92 K, 10000 kPa | 342.34 ± 4.8
314.92 K, 15000 kPa | 340.08 ± 5
323.71 K, 100 kPa | 374.09 ± 5.3
323.72 K, 5000 kPa | 369.47 ± 5.2
323.73 K, 10000 kPa | 367.47 ± 5.2
323.74 K, 15000 kPa | 364.84 ± 5.3

COC(F)(F)C(F)(F)C(F)(F)F [heptafluoropropyl methyl ether]
[1]
Settings | molar heat capacity at constant pressure [J/K/mol]
255.05 K, 100 kPa | 233.26 ± 3.2
255.06 K, 10000 kPa | 230.06 ± 3.2
255.06 K, 15000 kPa | 229.26 ± 3.2
255.08 K, 5000 kPa | 231.26 ± 3.2
266.01 K, 100 kPa | 240.27 ± 3.4
266.01 K, 5000 kPa | 238.67 ± 3.4
266.02 K, 10000 kPa | 237.06 ± 3.4
266.03 K, 15000 kPa | 236.46 ± 3.4
275.04 K, 100 kPa | 245.47 ± 3.4
275.04 K, 15000 kPa | 241.27 ± 3.4
275.05 K, 5000 kPa | 244.27 ± 3.4
275.11 K, 10000 kPa | 242.47 ± 3.4
284.81 K, 100 kPa | 251.87 ± 3.6
284.81 K, 5000 kPa | 250.07 ± 3.6
284.86 K, 10000 kPa | 248.67 ± 3.6
284.94 K, 15000 kPa | 247.47 ± 3.4
294.05 K, 100 kPa | 257.67 ± 3.6
294.07 K, 5000 kPa | 255.47 ± 3.6
294.08 K, 10000 kPa | 254.47 ± 3.6
294.1 K, 15000 kPa | 253.67 ± 3.6
